In US11504364B2, “Inhibitors of fibroblast activation protein” (Praxis Biotech LLC, priority 2018, dated 2022):

Experiments:
Assay type in all cases: biochemical
[1] = target: recombinant human FAPα (rhFAPα) (Homo sapiens (Human), UniProt Q12884); assay: FAPα enzymatic exopeptidase (dipeptidase) activity assay, Z-Gly-Pro-AMC; details: for inhibition at 1 µM: 1 μM test compound, exopeptidase, Table 3B, read-out: rhFAPα (% exo inh @ 1 μM)
[2] = target: recombinant human DPPIV (rhDPPIV) (Homo sapiens (Human), UniProt P27487); assay: DPPIV enzymatic activity assay; details: Table 3B
[3] = target: recombinant human DPP9 (rhDPP9) (Homo sapiens (Human), UniProt Q86TI2); assay: Inhibition of DPP9 activity, 10 ng rhDPP9, H-Gly-Pro-AMC; details: Table 3B
Sequence of recombinant human DPP9 (rhDPP9) (Q86TI2 whole entry): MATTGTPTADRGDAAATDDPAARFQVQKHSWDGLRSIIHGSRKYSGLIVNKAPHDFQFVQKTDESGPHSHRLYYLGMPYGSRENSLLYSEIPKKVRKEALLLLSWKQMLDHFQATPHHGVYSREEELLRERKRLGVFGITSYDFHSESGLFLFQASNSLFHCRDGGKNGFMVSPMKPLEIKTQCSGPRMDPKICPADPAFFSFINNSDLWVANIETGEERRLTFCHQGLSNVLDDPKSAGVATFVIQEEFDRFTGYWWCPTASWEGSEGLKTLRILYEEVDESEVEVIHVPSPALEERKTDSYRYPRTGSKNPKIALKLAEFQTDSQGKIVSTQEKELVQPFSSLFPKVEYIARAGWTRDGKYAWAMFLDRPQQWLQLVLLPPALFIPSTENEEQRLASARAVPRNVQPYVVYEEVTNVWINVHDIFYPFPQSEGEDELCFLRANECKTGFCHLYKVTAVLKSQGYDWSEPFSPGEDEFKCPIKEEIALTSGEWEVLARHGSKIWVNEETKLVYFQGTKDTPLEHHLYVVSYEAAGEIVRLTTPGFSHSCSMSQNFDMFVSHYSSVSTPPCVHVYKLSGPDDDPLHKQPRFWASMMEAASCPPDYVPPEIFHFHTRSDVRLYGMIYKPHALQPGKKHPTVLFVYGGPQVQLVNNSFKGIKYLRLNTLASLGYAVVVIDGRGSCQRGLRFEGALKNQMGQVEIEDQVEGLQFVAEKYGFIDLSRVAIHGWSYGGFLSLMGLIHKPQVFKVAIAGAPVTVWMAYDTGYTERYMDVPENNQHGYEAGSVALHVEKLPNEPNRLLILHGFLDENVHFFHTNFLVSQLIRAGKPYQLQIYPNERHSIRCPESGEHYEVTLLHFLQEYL

Sequence of recombinant human DPPIV (rhDPPIV) (P27487 whole entry): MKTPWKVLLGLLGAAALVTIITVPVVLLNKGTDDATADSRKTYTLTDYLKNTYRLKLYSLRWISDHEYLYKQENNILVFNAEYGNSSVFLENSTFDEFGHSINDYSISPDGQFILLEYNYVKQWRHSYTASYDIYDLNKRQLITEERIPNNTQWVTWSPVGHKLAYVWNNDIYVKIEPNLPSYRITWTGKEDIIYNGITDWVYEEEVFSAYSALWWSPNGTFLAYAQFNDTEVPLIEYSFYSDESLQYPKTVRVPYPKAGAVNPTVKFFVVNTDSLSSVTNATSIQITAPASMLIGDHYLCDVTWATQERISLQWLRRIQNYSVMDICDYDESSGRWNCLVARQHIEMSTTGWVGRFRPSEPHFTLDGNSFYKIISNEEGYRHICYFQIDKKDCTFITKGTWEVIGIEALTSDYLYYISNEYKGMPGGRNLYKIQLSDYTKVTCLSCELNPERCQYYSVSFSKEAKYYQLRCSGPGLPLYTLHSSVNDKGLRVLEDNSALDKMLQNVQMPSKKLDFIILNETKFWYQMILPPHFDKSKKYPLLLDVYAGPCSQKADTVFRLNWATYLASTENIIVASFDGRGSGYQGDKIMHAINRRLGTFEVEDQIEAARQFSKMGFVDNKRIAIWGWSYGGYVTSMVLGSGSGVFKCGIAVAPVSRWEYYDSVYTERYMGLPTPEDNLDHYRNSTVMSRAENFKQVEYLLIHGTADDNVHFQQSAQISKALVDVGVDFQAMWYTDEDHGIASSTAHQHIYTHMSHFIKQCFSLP
Sequence of recombinant human FAPα (rhFAPα) (Q12884 whole entry): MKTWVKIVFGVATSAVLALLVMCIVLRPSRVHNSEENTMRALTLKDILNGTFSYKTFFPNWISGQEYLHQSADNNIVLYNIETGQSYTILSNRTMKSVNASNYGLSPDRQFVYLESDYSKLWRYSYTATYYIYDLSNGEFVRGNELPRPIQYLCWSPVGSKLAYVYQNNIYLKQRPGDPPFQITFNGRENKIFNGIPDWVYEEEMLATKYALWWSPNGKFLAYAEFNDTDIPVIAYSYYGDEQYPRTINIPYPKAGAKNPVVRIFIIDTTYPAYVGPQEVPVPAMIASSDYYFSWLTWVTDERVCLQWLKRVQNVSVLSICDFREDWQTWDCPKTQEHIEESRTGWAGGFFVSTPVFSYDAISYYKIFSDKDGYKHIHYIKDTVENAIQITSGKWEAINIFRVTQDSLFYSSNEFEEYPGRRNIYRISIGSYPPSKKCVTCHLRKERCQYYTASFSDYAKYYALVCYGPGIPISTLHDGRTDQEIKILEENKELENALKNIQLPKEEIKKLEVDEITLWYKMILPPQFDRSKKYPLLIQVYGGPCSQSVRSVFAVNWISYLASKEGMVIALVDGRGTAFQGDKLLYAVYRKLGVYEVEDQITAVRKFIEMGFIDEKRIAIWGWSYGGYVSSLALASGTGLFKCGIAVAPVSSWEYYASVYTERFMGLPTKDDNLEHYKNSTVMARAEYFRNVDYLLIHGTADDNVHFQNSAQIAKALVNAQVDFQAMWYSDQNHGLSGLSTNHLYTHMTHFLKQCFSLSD

Row | SMILES | inhibition at 1 µM [1] | IC50 [2] | IC50 [3] | IC50 [1]
1 | N#C[C@@H]1CC(F)(F)CN1C(=O)CNC(=O)c1ccnc2ccc(-c3ccccc3)cc12 [Compound 1, (S)—N-(2-(2-cyano-4,4-difluoropyrrolidin-1-yl)-2-oxoethyl)-6-phenylquinoline-4-carboxamide] | > 50% | > 10 µM | – | –
2 | Cc1noc(C)c1-c1ccc2nccc(C(=O)NCC(=O)N3CC(F)(F)C[C@H]3C#N)c2c1 [Compound 4, (S)—N-(2-(2-cyano-4,4-difluoropyrrolidin-1-yl)-2-oxoethyl)-6-(3,5-dimethylisoxazol-4-yl)quinoline-4-carboxamide] | > 50% | > 10 µM | – | –
3 | N#C[C@@H]1CC(F)(F)CN1C(=O)CNC(=O)c1ccnc2ccc(-c3cccnc3)cc12 [Compound 5, (S)—N-(2-(2-cyano-4,4-difluoropyrrolidin-1-yl)-2-oxoethyl)-6-(pyridin-3-yl)quinoline-4-carboxamide] | – | > 10 µM | < 1 µM | –
4 | N#C[C@@H]1CC(F)(F)CN1C(=O)CNC(=O)c1ccnc2ccc(-c3ccncc3)cc12 [Compound 6, (S)—N-(2-(2-cyano-4,4-difluoropyrrolidin-1-yl)-2-oxoethyl)-6-(pyridin-4-yl)quinoline-4-carboxamide] | – | > 10 µM | < 1 µM | –
5 | CC(C)(C)c1ccc(-c2ccc3nccc(C(=O)NCC(=O)N4CC(F)(F)C[C@H]4C#N)c3c2)cc1 [Compound 7, (S)-6-(4-(tert-butyl)phenyl)-N-(2-(2-cyano-4,4-difluoropyrrolidin-1-yl)-2-oxoethyl)quinoline-4-carboxamide] | – | > 10 µM | < 1 µM | –
6 | Cn1ccc2cc(-c3ccc4nccc(C(=O)NCC(=O)N5CC(F)(F)C[C@H]5C#N)c4c3)ccc21 [Compound 8, (S)—N-(2-(2-cyano-4,4-difluoropyrrolidin-1-yl)-2-oxoethyl)-6-(1-methyl-1H-indol-5-yl)quinoline-4-carboxamide] | – | 1 to 10 µM | < 1 µM | –
7 | N#C[C@@H]1CC(F)(F)CN1C(=O)CNC(=O)c1ccnc2ccc(-c3ccc4[nH]ccc4c3)cc12 [Compound 9, (S)—N-(2-(2-cyano-4,4-difluoropyrrolidin-1-yl)-2-oxoethyl)-6-(1H-indol-5-yl)quinoline-4-carboxamide] | – | > 10 µM | < 1 µM | –
8 | Cn1cc(-c2ccc3nccc(C(=O)NCC(=O)N4CC(F)(F)C[C@H]4C#N)c3c2)cn1 [Compound 10, (S)—N-(2-(2-cyano-4,4-difluoropyrrolidin-1-yl)-2-oxoethyl)-6-(1-methyl-1H-pyrazol-4-yl)quinoline-4-carboxamide] | – | > 10 µM | < 1 µM | –
9 | N#C[C@@H]1CC(F)(F)CN1C(=O)CNC(=O)c1ccnc2ccc(-c3cnn(C4CC4)c3)cc12 [Compound 11, (S)—N-(2-(2-cyano-4,4-difluoropyrrolidin-1-yl)-2-oxoethyl)-6-(1-cyclopropyl-1H-pyrazol-4-yl)quinoline-4-carboxamide] | – | 1 to 10 µM | < 1 µM | –
10 | N#C[C@@H]1CC(F)(F)CN1C(=O)CNC(=O)c1ccnc2ccc(-c3ccc4c(c3)CCN4)cc12 [Compound 12, (S)—N-(2-(2-cyano-4,4-difluoropyrrolidin-1-yl)-2-oxoethyl)-6-(indolin-5-yl)quinoline-4-carboxamide] | – | > 10 µM | < 1 µM | –
11 | CC(C)C/C=C/c1ccc2nccc(C(=O)NCC(=O)N3CC(F)(F)C[C@H]3C#N)c2c1 [Compound 13, (S,E)-N-(2-(2-cyano-4,4-difluoropyrrolidin-1-yl)-2-oxoethyl)-6-(4-methylpent-1-en-1-yl)quinoline-4-carboxamide] | – | > 10 µM | < 1 µM | –
12 | N#C[C@@H]1CC(F)(F)CN1C(=O)CNC(=O)c1ccnc2ccc(/C=C/c3ccccc3)cc12 [Compound 14, (S,E)-N-(2-(2-cyano-4,4-difluoropyrrolidin-1-yl)-2-oxoethyl)-6-styrylquinoline-4-carboxamide] | – | > 10 µM | < 1 µM | –
13 | CN(C)c1ccc2cc(-c3ccc4nccc(C(=O)NCC(=O)N5CC(F)(F)C[C@H]5C#N)c4c3)ccc2c1 [Compound 15, (S)—N-(2-(2-cyano-4,4-difluoropyrrolidin-1-yl)-2-oxoethyl)-6-(6-(dimethylamino)naphthalen-2-yl)quinoline-4-carboxamide] | – | > 10 µM | < 1 µM | –
14 | N#C[C@@H]1CC(F)(F)CN1C(=O)CNC(=O)c1ccnc2ccc(-c3ccc(=O)[nH]c3)cc12 [Compound 17, (S)—N-(2-(2-cyano-4,4-difluoropyrrolidin-1-yl)-2-oxoethyl)-6-(6-oxo-1,6-dihydropyridin-3-yl)quinoline-4-carboxamide] | – | > 10 µM | < 1 µM | –
15 | N#C[C@@H]1CC(F)(F)CN1C(=O)CNC(=O)c1ccnc2ccc(-c3ccc4c(c3)CCNC4=O)cc12 [Compound 18, (S)—N-(2-(2-cyano-4,4-difluoropyrrolidin-1-yl)-2-oxoethyl)-6-(1-oxo-1,2,3,4-tetrahydroisoquinolin-6-yl)quinoline-4-carboxamide] | – | < 1 µM | < 1 µM | –
16 | N#C[C@@H]1CC(F)(F)CN1C(=O)CNC(=O)c1ccnc2ccc(/C=C/c3ccccn3)cc12 [Compound 21] | – | > 10 µM | < 1 µM | –
17 | COC(=O)/C=C/c1ccc2nccc(C(=O)NCC(=O)N3CC(F)(F)C[C@H]3C#N)c2c1 [Compound 22] | – | > 10 µM | < 1 µM | –
18 | Cc1ccc(-c2ccc3nccc(C(=O)NCC(=O)N4CC(F)(F)C[C@H]4C#N)c3c2)cn1 [Compound 23] | > 50% | – | < 1 µM | < 1 µM
19 | N#C[C@@H]1CC(F)(F)CN1C(=O)CNC(=O)c1ccnc2ccc(-c3ccc4c(c3)OCCO4)cc12 [Compound 24] | > 50% | – | < 1 µM | < 1 µM
20 | N#C[C@@H]1CC(F)(F)CN1C(=O)CNC(=O)c1ccnc2ccc(-c3ccc(C4CC4)nc3)cc12 [Compound 25] | > 50% | – | < 1 µM | < 1 µM
21 | N#C[C@@H]1CC(F)(F)CN1C(=O)CNC(=O)c1ccnc2ccc(-c3ccc(OC(F)(F)F)cc3)cc12 [Compound 31] | – | > 10 µM | < 1 µM | –

Row | SMILES | inhibition at 1 µM [1] | IC50 [2] | IC50 [3] | IC50 [1]
22 | CN1CCN(Cc2ccc(-c3ccc4nccc(C(=O)NCC(=O)N5CC(F)(F)C[C@H]5C#N)c4c3)cc2)CC1 [Compound 32] | > 50% | > 10 µM | – | –
23 | COc1ccc(-c2ccc3nccc(C(=O)NCC(=O)N4CC(F)(F)C[C@H]4C#N)c3c2)cn1 [Compound 33] | > 50% | – | < 1 µM | < 1 µM
24 | CC(C)Oc1ccc(-c2ccc3nccc(C(=O)NCC(=O)N4CC(F)(F)C[C@H]4C#N)c3c2)cn1 [Compound 34] | > 50% | – | < 1 µM | < 1 µM
25 | COCCOc1ccc(-c2ccc3nccc(C(=O)NCC(=O)N4CC(F)(F)C[C@H]4C#N)c3c2)cc1 [Compound 35] | > 50% | – | < 1 µM | < 1 µM
26 | COCCOc1ccc(-c2ccc3nccc(C(=O)NCC(=O)N4CC(F)(F)C[C@H]4C#N)c3c2)cn1 [Compound 36] | – | > 10 µM | < 1 µM | –
27 | N#C[C@@H]1CC(F)(F)CN1C(=O)CNC(=O)c1ccnc2ccc(/C=C/c3ccc4c(c3)CCC(=O)N4)cc12 [Compound 37] | > 50% | – | < 1 µM | < 1 µM
28 | CC(=O)Nc1ccc(-c2ccc3nccc(C(=O)NCC(=O)N4CC(F)(F)C[C@H]4C#N)c3c2)cc1 [Compound 97] | – | > 10 µM | < 1 µM | –
29 | CC(=O)Nc1cccc(-c2ccc3nccc(C(=O)NCC(=O)N4CC(F)(F)C[C@H]4C#N)c3c2)c1 [Compound 98] | – | > 10 µM | < 1 µM | –
30 | CC(=O)Nc1ccccc1-c1ccc2nccc(C(=O)NCC(=O)N3CC(F)(F)C[C@H]3C#N)c2c1 [Compound 99] | > 50% | > 10 µM | – | –
31 | CNC(=O)c1ccc(-c2ccc3nccc(C(=O)NCC(=O)N4CC(F)(F)C[C@H]4C#N)c3c2)cc1 [Compound 100] | – | > 10 µM | < 1 µM | –
32 | N#C[C@@H]1CC(F)(F)CN1C(=O)CNC(=O)c1ccnc2ccc(-c3ccc4[nH]ncc4c3)cc12 [Compound 101] | > 50% | – | < 1 µM | < 1 µM
33 | CNC(=O)c1cccc(-c2ccc3nccc(C(=O)NCC(=O)N4CC(F)(F)C[C@H]4C#N)c3c2)c1 [Compound 102] | – | > 10 µM | < 1 µM | –
34 | N#C[C@@H]1CC(F)(F)CN1C(=O)CNC(=O)c1ccnc2ccc(-c3c[nH]c4ccccc34)cc12 [Compound 103] | > 50% | – | < 1 µM | < 1 µM
35 | N#C[C@@H]1CC(F)(F)CN1C(=O)CNC(=O)c1ccnc2ccc(-c3ccc4c(c3)CNC4=O)cc12 [Compound 104] | – | < 1 µM | < 1 µM | –
36 | N#C[C@@H]1CC(F)(F)CN1C(=O)CNC(=O)c1ccnc2ccc(/C=C/c3ccc4ncccc4c3)cc12 [Compound 105] | > 50% | – | – | –
37 | N#C[C@@H]1CC(F)(F)CN1C(=O)CNC(=O)c1ccnc2ccc(-c3ccc4c(c3)CC(=O)N4)cc12 [Compound 106] | > 50% | – | < 1 µM | < 1 µM
38 | N#C[C@@H]1CC(F)(F)CN1C(=O)CNC(=O)c1ccnc2ccc(-c3cccc4c3CCC(=O)N4)cc12 [Compound 108] | – | > 10 µM | < 1 µM | –
39 | N#C[C@@H]1CC(F)(F)CN1C(=O)CNC(=O)c1ccnc2ccc(-c3cccc4c3CCNC4=O)cc12 [Compound 109] | – | > 10 µM | < 1 µM | –
40 | N#C[C@@H]1CC(F)(F)CN1C(=O)CNC(=O)c1ccnc2ccc(-c3ccc4c(c3)CCNC4)cc12 [Compound 114] | > 50% | > 10 µM | – | –
41 | N#C[C@@H]1CC(F)(F)CN1C(=O)CNC(=O)c1ccnc2ccc(/C=C/c3ccc4c(c3)CCN4)cc12 [Compound 115] | – | > 10 µM | < 1 µM | –
42 | CNC(=O)c1ccc(-c2ccc3nccc(C(=O)NCC(=O)N4CC(F)(F)C[C@H]4C#N)c3c2)cc1F [Compound 116] | – | > 10 µM | < 1 µM | –
